Results as given in US20210330807A1, “NOVEL HYDROGEL CONJUGATES” (priority 2018, published 2021).

Experiment: Stability of daptomycin in a transient daptomycin-linker hydrogel conjugate versus free daptomycin
Type: physicochemical
Settings: pH 7.4 and 37° C.; at day seven; UPLC peak area ratio at 215 nm
Method: The relative stability of the covalently bound daptomycin in a transient daptomycin-linker hydrogel conjugate towards hydrolytic and other degradation pathways in comparison to free daptomycin was investigated. […] The supernatant of the carrier sample was exchanged five times within a week and the daptomycin purity in these samples was analyzed by UPLC. In parallel, analytical samples of the free daptomycin control solution were also analyzed by UPLC at the same incubation times. The purity of daptomycin in the samples was calculated as the ratio of the peak area of the intact daptomycin peak at 215 nm relative to the area sum of all daptomycin-related peaks identified at 215 nm.

purity of the free daptomycin in the solution control sample: 72%
Structure (SMILES): CCCCCCCCCC(=O)N[C@@H](Cc1c[nH]c2ccccc12)C(=O)N[C@H](CC(N)=O)C(=O)N[C@@H](CC(=O)O)C(=O)N[C@@H]1C(=O)NCC(=O)N[C@@H](CCCN)C(=O)N[C@@H](CC(=O)O)C(=O)N[C@H](C)C(=O)N[C@@H](CC(=O)O)C(=O)NCC(=O)N[C@H](CO)C(=O)N[C@@H]([C@H](C)CC(=O)O)C(=O)N[C@@H](CC(=O)c2ccccc2N)C(=O)O[C@@H]1C [daptomycin]
